Reference: US12590127B2, “Split photoactive yellow protein complementation system and uses thereof” (PARIS SCIENCES ET LETTRES, priority 2019, dated 2026)

Key:
[1] = target: T1, NFAST (Halorhodospira halophila, UniProt P16113, C69G/D97P/F96I/M100R/Q99S/T101G/T95M/Y94W/Y98T); experiment: Thermodynamic dissociation constants of NFAST:CFASTn couples in the presence of fluorogen (plate reader, one-site specific binding fit); conditions: synthetic CFASTn peptide and purified NFAST
T1 construct: His tag (N); made in house; host or cells: Rosetta (DE3) pLysS E. coli
Method: In one embodiment, the thermodynamic dissociation constant KD is determined by spectrofluorometric titration as described in the Examples.
Expression vectors were transformed in Rosetta (DE3) pLysS E. coli (NEW ENGLAND BIOLABS®). Cells were grown at 37° C. in LB medium complemented with 50 μg/mL kanamycin and 34 μg/mL chloramphenicol to OD600 nm 0.6. Expression was induced for 4 hours by adding isopropyl β-D-1-thiogalactopyranoside (IPTG) to a final concentration of 1 mM. Cells were harvested by centrifugation (4,000×g for 20 min at 4° C.) and frozen. The cell pellet was resuspended in lysis buffer (phosphate buffer 50 mM, NaCl 150 mM, MgCl2 2.5 mM, protease inhibitor, DNase, pH 7.4) and sonicated (5 min at 20% of amplitude, 3 sec on, 1 sec off). The lysate was incubated for 2 hours at 4° C. to allow DNA digestion by DNase. Cellular fragments were removed by centrifugation (9200×g for 1 hour at 4° C.). The supernatant was incubated overnight at 4° C. under gentle agitation with Ni-NTA agarose beads in phosphate buffered saline (PBS) (sodium phosphate 50 mM, NaCl 150 mM, pH 7.4) complemented with 10 mM imidazole. Beads were washed with 20 volumes of PBS containing 20 mM imidazole, and with 5 volumes of PBS complemented with 40 mM imidazole. His-tagged proteins were eluted with 5 volumes of PBS complemented with 0.5 M imidazole. The buffer was exchanged to PBS (50 mM phosphate, 150 mM NaCl, pH 7.4) using PD-10 desalting columns.
Thermodynamic dissociation constants for NFAST:CFASTn (n=8 to 11) couples were determined using peptides synthesized for CFASTn (n=8 to 11) and recombinantly purified NFAST. The affinity for NFAST:CFAST11 in the presence of 10 μM HMBR was determined independently from a minimum of three different purifications of NFAST. NFAST:CFAST11 was then run in parallel as an internal control for the determination of the other NFAST-CFAST combinations, which were all performed on the same day with the same preparation of NFAST. Thermodynamic dissociation constants were determined with a Spark 10M plate reader (TECAN®) and fit in Prism 6 to a one-site specific binding model.

[2] = test system: HEK 293T cells; experiment: Relative in-cell brightness of split-FAST after rapamycin-induced FRB-FKBP complementation; assay type: cell-based, human; conditions: FIG. 4; for relative in-cell brightness (fluorescence observed) by C-terminal fragment: FRB-NFAST + FKBP-CFASTn, any of HMBR, HBR-3,5DM, HBR-30M, HBR-3,5DOM
Text: FIGS. 4A-4D are a set of histograms showing the relative in-cell brightness of various split-FAST with different fluorogenic HBR analogs as indicated (4A: HMBR, 4B: HBR-3,5DM, 4C: HBR-30M, and 4D: HBR-3,5DOM) in function of the C-terminal fragment CFASTn (n=11, 10 or 9) and the N-terminal fragment used. The iFAST label indicates when NFAST from iFAST (i.e., the first PYP fragment according to the invention consisting of the amino acid sequence NFAST with an isoleucine at position 107 instead of a valine as set forth in SEQ ID NO: 30) was used. If absent, NFAST from FAST was used (i.e., the first PYP fragment according to the invention consisting of the amino acid sequence as set forth in SEQ ID NO: 23). CFAST11, CFAST10 and CFAST9 correspond to the second PYP fragment according to the invention consisting of the amino acid sequence as set forth in SEQ ID NO: 34, SEQ ID NO: 42 and SEQ ID NO: 43, respectively. NFAST fragments were fused to FRB and CFAST fragments were fused to FKBP. Complementation was induced by addition of rapamycin. Split-FAST fluorescence was normalized by expression level using the fluorescence of co-expressed fluorescent proteins.
HEK 293T cells were seeded in ibidi μDish microscopy dishes and 24 hours prior to imaging were co-transfected with plasmids encoding CMV-FRB-NFAST (or NFAST(V107I))-P2A-mCherry (or EGFP)) and CMV-FKBP-CFASTn (n=11, 10 or 9). The cells were imaged before and after addition of 500 nM rapamycin.

[3] = test system: HEK293 cells; experiment: Photobleaching / photostability of split-FAST:HMBR in cells by confocal microscopy; assay type: cell-based, human; conditions: 10 μM HMBR, 488 nm excitation, rapamycin-treated cells, FAST as control, FIG. 5E
Method: FIGS. 5A-5G illustrate the detection of rapamycin-induced FRB-FKBP dimerization with the complementation system of the invention. 5A and 5B show HEK293T cells co-expressing FKBP-NFAST and FRB-CFASTn (n=10 or 11) which were labeled with 5 μM HMBR (5A) or 10 μM HBR-3,5DOM (5B) and imaged before and after addition of 100 nM rapamycin. Scale bars 10 μm. […] Cells expressing FRB-NFAST and FKBP-CFASTn (n=10 or 11) were treated with rapamycin to form split-FAST11 and split-FAST10. Cells expressing FAST were used as control. HMBR concentration was 10 μM. Excitation at 488 nm at 6.3 kW/cm2. Six cells were analyzed per condition. […] Scale bars 20 μm. […] Scale bars 20 μm.
Photobleaching measurements for HMBR were carried out at 10 μM fluorogen at 488 nm excitation (4.6 kW/cm2, […] pixel dwell); FAST was used as a control. Samples were imaged continuously for 1000 images at a 1 frame per second frequency.

[4] = KD of NFAST-CFASTn 10 μM HMBR, in the presence of 10 μM HMBR
[5] = KD of NFAST-CFASTn 10 μM HBR-3,5-DOM, in the presence of 10 μM HBR-3,5-DOM

T1 sequence (P16113 1-114 C69G/Y94W/T95M/F96I/D97P/Y98T/Q99S/M100R/T101G): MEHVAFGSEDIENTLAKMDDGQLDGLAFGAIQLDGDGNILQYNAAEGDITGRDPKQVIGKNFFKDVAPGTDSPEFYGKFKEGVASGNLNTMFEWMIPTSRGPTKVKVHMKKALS

## Ac-GDSYWVFV-NH2 [CFAST8]
[1]; [4]
  Kd: 21 ± 4 µM

## Ac-GDSYWVFVK-NH2 [CFAST9]
[2]
  relative in-cell brightness (fluorescence observed) by C-terminal fragment: lowest
[1]; [5]
  Kd: 25 ± 1 µM
[1]; [4]
  Kd: 5.7 ± 0.06 µM

## Ac-GDSYWVFVKR-NH2 [CFAST10]
[3]
  photostability of split-FAST:fluorogen assembly in cells: as photostable as the regular FAST:fluorogen complex
[2]
  relative in-cell brightness (fluorescence observed) by C-terminal fragment: lower
[1]; [5]
  Kd: 6.2 ± 0.5 µM
[1]; [4]
  Kd: 0.95 ± 0.08 µM

## Ac-GDSYWVFVKRV-NH2 [CFAST11]
[3]
  photostability of split-FAST:fluorogen assembly in cells: as photostable as the regular FAST:fluorogen complex
[2]
  relative in-cell brightness (fluorescence observed) by C-terminal fragment: highest
[1]; [5]
  Kd: 1.4 ± 0.2 µM
[1]; [4]
  Kd: 0.21 ± 0.05 µM

B1: iFAST: FAST variant with isoleucine at position 107 (SEQ ID NO: 16); its Nter fragment is SEQ ID NO: 30 (protein)
chain: MEHVAFGSEDIENTLAKMDDGQLDGLAFGAIQLDGDGNILQYNAAEGDITGRDPKQVIGKNFFKDVAPGTDSPEFYGKFKEGVASGNLNTMFEWMIPTSRGPTKVKIHMKKALSGDSYWVFVKRV
modifications: functional PYP
[2]; HEK 293T cells
  fluorescence of the Nter fragment of iFAST + CFAST compared with NFAST + CFAST: similar
